Reference: patent US20260262643A1, “HERBICIDAL BENZOXAZINES” (FMC CORPORATION, priority 2022, published 2026)

Assays:
[1] = system: oat, wild; test: Test A preemergence; format: in vivo, Avena fatua
Summary of the method: (§1)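 Plants were grown in loam and sand and treated preemergence or postemergence (one- to two-leaf stage, 2–10 cm) with compound in solvent plus surfactant. Response was scored against untreated controls after 10 greenhouse days, where 0 means no effect and 100 complete control.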

[2] = system: kochia; test: Test A preemergence; format: in vivo, Bassia scoparia
Summary of the method: as §1

[3] = system: wheat; test: Test A preemergence; format: in vivo, Triticum aestivum
Summary of the method: as §1

[4] = system: kochia; test: Test A postemergence; format: in vivo, Bassia scoparia
Summary of the method: as §1

[5] = system: corn; test: Test A postemergence; format: in vivo, Zea mays
Summary of the method: as §1

[6] = system: foxtail, giant; test: Test A preemergence; format: in vivo, Setaria faberi
Summary of the method: as §1

[7] = system: wheat; test: Test A postemergence; format: in vivo, Triticum aestivum
Summary of the method: as §1

[8] = system: soybean; test: Test A postemergence; format: in vivo, Glycine max
Summary of the method: as §1

[9] = system: horseweed; test: Test A postemergence; format: in vivo, Erigeron canadensis
Summary of the method: as §1

[10] = system: galium; test: Test A postemergence; format: in vivo, Galium aparine
Summary of the method: as §1

[11] = system: foxtail, giant; test: Test A postemergence; format: in vivo, Setaria faberi
Summary of the method: as §1

[12] = system: ragweed; test: Test A preemergence; format: in vivo, Ambrosia artemisiifolia
Summary of the method: as §1

[13] = system: blackgrass; test: Test A preemergence; format: in vivo, Alopecurus myosuroides
Summary of the method: as §1

[14] = system: rice; test: Test B flooded paddy test; format: in vivo, Oryza sativa; details: 250 g ai/ha, Flood, 13 days, 0 to 100 scale (0 no effect, 100 complete control)
Summary of the method: (§2)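 Each species was raised to the 2-leaf stage. At treatment, each pot received floodwater 3 cm deep, with the chemical delivered into the water. Greenhouse holding followed for 13 days, then percent control was estimated visually versus untreated pots.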

[15] = system: soybean; test: Test A preemergence; format: in vivo, Glycine max
Summary of the method: as §1

[16] = system: pigweed, palmer; test: Test A preemergence; format: in vivo, Amaranthus palmeri
Summary of the method: as §1

[17] = system: goosegrass; test: Test A postemergence; format: in vivo, Eleusine indica
Summary of the method: as §1

[18] = system: sedge, umbrella; test: Test B flooded paddy test; format: in vivo, Cyperus difformis; details: 250 g ai/ha, Flood, 13 days, 0 to 100 scale (0 no effect, 100 complete control)
Summary of the method: as §2

[19] = system: blackgrass; test: Test A postemergence; format: in vivo, Alopecurus myosuroides
Summary of the method: as §1

[20] = system: corn; test: Test A preemergence; format: in vivo, Zea mays
Summary of the method: as §1

[21] = system: ducksalad; test: Test B flooded paddy test; format: in vivo, Heteranthera limosa; details: 250 g ai/ha, Flood, 13 days, 0 to 100 scale (0 no effect, 100 complete control)
Summary of the method: as §2

[22] = system: oat, wild; test: Test A postemergence; format: in vivo, Avena fatua
Summary of the method: as §1

[23] = system: ragweed; test: Test A postemergence; format: in vivo, Ambrosia artemisiifolia
Summary of the method: as §1

[24] = system: ryegrass, Italian; test: Test A postemergence; format: in vivo, Lolium multiflorum
Summary of the method: as §1

[25] = system: pigweed, palmer; test: Test A postemergence; format: in vivo, Amaranthus palmeri
Summary of the method: as §1

[26] = system: goosegrass; test: Test A preemergence; format: in vivo, Eleusine indica
Summary of the method: as §1

[27] = system: barnyardgrass; test: Test B flooded paddy test; format: in vivo, Echinochloa crus-galli; details: 250 g ai/ha, Flood, 13 days, 0 to 100 scale (0 no effect, 100 complete control)
Summary of the method: as §2

[28] = system: ryegrass, Italian; test: Test A preemergence; format: in vivo, Lolium multiflorum
Summary of the method: as §1

[29] = 125 g ai/ha, visual injury after 10 days, 0 to 100 scale, 0 is no effect, 100 is complete control
[30] = 500 g ai/ha, 0 to 100 scale (0 no effect, 100 complete control), 10 days
[31] = 125 g ai/ha, postemergence, 10 days, visual injury, 0 to 100 scale (0 no effect, 100 complete control)
[32] = 500 g ai/ha, postemergence, 10 days, visual injury, 0 to 100 scale (0 no effect, 100 complete control)
[33] = 500 g ai/ha, Postemergence, 0 to 100 scale

C[C@H]1CN(C(=O)c2cc(-n3cncn3)ccc2C(F)(F)F)c2cccc(Cl)c2O1 [Compound 70]
80: Plant response rating, Galium [10, 32] | Plant response rating, Blackgrass [13, 30]
30: Plant response rating, Foxtail, Giant [11, 32] | Plant response rating, Blackgrass [13, 29] | Plant response rating, Blackgrass [19, 31] | Plant response rating, Ryegrass, Italian [24, 32]
70: Plant response rating, Oat, Wild [1, 30] | Plant response rating, Blackgrass [19, 33] | Plant response rating, Pigweed, Palmer [25, 32] | Plant response rating, Goosegrass [26, 29]
90: Plant response rating, Pigweed, Palmer [16, 30] | Plant response rating, Ryegrass, Italian [28, 30]
50: Plant response rating, Galium [10, 31] | Plant response rating, Ryegrass, Italian [28, 29]
60: Plant response rating, Kochia [4, 32]
100: Plant response rating, Foxtail, Giant [6, 30] | Plant response rating, Soybean [8, 32] | Plant response rating, Goosegrass [26, 30]
20: Plant response rating, Foxtail, Giant [6, 29] | Plant response rating, Wheat [7, 32] | Plant response rating, Pigweed, Palmer [16, 29] | Plant response rating, Corn [20, 30]
10: Plant response rating, Wheat [3, 30] | Plant response rating, Kochia [4, 31] | Plant response rating, Corn [5, 31] | Plant response rating, Corn [5, 32] | Plant response rating, Foxtail, Giant [11, 31] | Plant response rating, Goosegrass [17, 31] | Plant response rating, Goosegrass [17, 32] | Plant response rating, Corn [20, 29] | Plant response rating, Oat, Wild [22, 32]
0: Plant response rating, Oat, Wild [1, 29] | Plant response rating, Kochia [2, 29] | Plant response rating, Kochia [2, 30] | Plant response rating, Wheat [3, 29] | Plant response rating, Horseweed [9, 31] | Plant response rating, Horseweed [9, 32] | Plant response rating, Ragweed [12, 29] | Plant response rating, Ragweed [12, 30] | Plant response rating, Rice [14] | Plant response rating, Soybean [15, 29] | Plant response rating, Soybean [15, 30] | Plant response rating, Sedge, Umbrella [18] | Plant response rating, Ducksalad [21] | Plant response rating, Ragweed [23, 32] | Plant response rating, Barnyardgrass [27]

Cc1ccc(-n2cncn2)cc1C(=O)N1C[C@H](C)Oc2c(C)cccc21 [Compound 57]
100: Plant response rating, Foxtail, Giant [6, 29] | Plant response rating, Foxtail, Giant [6, 30] | Plant response rating, Soybean [8, 31] | Plant response rating, Soybean [8, 33] | Plant response rating, Galium [10, 33] | Plant response rating, Soybean [15, 29] | Plant response rating, Soybean [15, 30] | Plant response rating, Pigweed, Palmer [16, 30] | Plant response rating, Ryegrass, Italian [24, 33] | Plant response rating, Goosegrass [26, 30] | Plant response rating, Ryegrass, Italian [28, 30]
10: Plant response rating, Kochia [4, 31]
80: Plant response rating, Wheat [3, 30] | Plant response rating, Corn [5, 33] | Plant response rating, Galium [10, 31] | Plant response rating, Blackgrass [19, 33] | Plant response rating, Oat, Wild [22, 31] | Plant response rating, Ryegrass, Italian [28, 29]
20: Plant response rating, Wheat [3, 29] | Plant response rating, Horseweed [9, 33] | Plant response rating, Pigweed, Palmer [25, 31]
30: Plant response rating, Kochia [2, 30] | Plant response rating, Kochia [4, 33] | Plant response rating, Pigweed, Palmer [16, 29] | Plant response rating, Ragweed [23, 31]
60: Plant response rating, Blackgrass [13, 29]
65: Plant response rating, Ducksalad [21]
90: Plant response rating, Oat, Wild [1, 30] | Plant response rating, Wheat [7, 33] | Plant response rating, Foxtail, Giant [11, 31] | Plant response rating, Foxtail, Giant [11, 33] | Plant response rating, Blackgrass [13, 30] | Plant response rating, Goosegrass [17, 33] | Plant response rating, Sedge, Umbrella [18] | Plant response rating, Oat, Wild [22, 33] | Plant response rating, Goosegrass [26, 29]
0: Plant response rating, Horseweed [9, 31] | Plant response rating, Ragweed [12, 29] | Plant response rating, Rice [14] | Plant response rating, Corn [20, 29]
70: Plant response rating, Corn [5, 31] | Plant response rating, Wheat [7, 31] | Plant response rating, Ryegrass, Italian [24, 31]
40: Plant response rating, Kochia [2, 29] | Plant response rating, Goosegrass [17, 31] | Plant response rating, Corn [20, 30]
15: Plant response rating, Barnyardgrass [27]
50: Plant response rating, Oat, Wild [1, 29] | Plant response rating, Ragweed [12, 30] | Plant response rating, Blackgrass [19, 31] | Plant response rating, Ragweed [23, 33] | Plant response rating, Pigweed, Palmer [25, 33]
